Reference: patent US4118561A, “7-(Substituted)-7H-pyrrolo[3,2-f]quinazoline-1,3-diamines” (priority 1977, dated 1978)
≈ marks a conversion by molar mass, not a printed value. Where two headings read alike, the source gives them in different places.

What was measured:
Proteus mirabilis 190 = assay: In vivo antibacterial synergism (mouse), Proteus mirabilis 190; design: species or system Proteus mirabilis (infected mice, CD-1); details: mice, p.o.; for ED50: Proteus mirabilis, 190, po, 336 h; for PD50 SM/Cpd. (compound part): 0 hours, 20160 min
Procedure: (§1) The test agents are weighed, suspended in 0.5% aqueous carboxymethyl cellulose, homogenized (glass tissue grinder) and diluted according to the design of the experiment. Mice (male, 18±1 g., CD-1 strain) are pre-weighed, pooled, infected at random intraperitoneally with a 0.5 ml. standardized suspension (LD95 ±5%) of the bacterial organism in 5% gastric mucin and treated at random with single doses of the test agents either at the time of infection or six hours after infecting. The treated groups consist of ten mice per dosage level. Deaths are recorded daily for 14 days and the PD50 (mice are treated at time of infection) and CD50 (mice are treated six hours after infecting) values are calculated by the method of Reed and Muench [Amer. J. Hyg., 27, 493 (1938)].

S. aureus Smith = assay: In vitro antibacterial activity (MIC), S. aureus Smith; details: Staphylococcus aureus, 18 h
E. coli 9637 = assay: In vitro antibacterial activity (MIC), E. coli 9637; details: Escherichia coli, 9637, 18 h
S. paratyphi 11737 = assay: In vitro antibacterial activity (MIC), S. paratyphi 11737; format: cell-based; details: Salmonella enterica, 18 h
N. catarrhalis 8193 = assay: In vitro antibacterial activity (MIC), N. catarrhalis 8193; details: 18 h
K. pneumoniae 10031 = assay: In vitro antibacterial activity (MIC), K. pneumoniae 10031; details: Klebsiella pneumoniae, 10031, 18 h
bacterial infections = assay: Synergism with sulfamethoxazole against bacterial infections in mice, oral; format: in vivo
Procedure: The invention also provides compounds which will potentiate the antibacterial effects of sulfa drugs.
as §1

S. aureus 53-180 = assay: In vitro antibacterial activity (MIC), S. aureus 53-180; details: Staphylococcus aureus, 53180, 18 h
P. vulgaris 6896 = assay: In vitro antibacterial activity (MIC), P. vulgaris 6896; details: Proteus vulgaris, 6896, 18 h
[1] = Antimalarial blood schizonticidal test in mice; format: in vivo, Plasmodium berghei (infected ICR/HA Swiss mice); design: ΔMST (increase in mean survival time): unit: days; details: mouse, in vivo, sc, single dose, read-out: Highest Non-Lethal Dose
Summary of the method: (§2)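 Single s.c. doses (peanut oil vehicle, graded levels) given 72 h after i.p. inoculation of young Swiss mice with P. berghei KBG 173 blood (4 × 10^7 parasitized cells). Activity judged by cures (alive at 60 days) or significant mean survival gain over untreated controls, without drug-related deaths.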

[2] = system: Plasmodium berghei KBG 173; assay: Antimalarial blood schizonticidal test in mice; format: in vivo, Plasmodium berghei (infected ICR/HA Swiss mice); design: ΔMST (increase in mean survival time): unit: days; details: s.c.; for ED100 / minimal effective dose: Plasmodium berghei, sc, single dose; for ED100: read-out: Lowest Dose Curing All Mice; for minimal effective dose: read-out: Min. Curing Dose; for Cure/Treat at Min. Curing Dose: at the Min. Curing Dose
Summary of the method: as §2

Proteus mirabilis 3 = assay: In vivo antibacterial synergism (mouse), Proteus mirabilis 3; design: species or system Proteus mirabilis (infected mice, CD-1); details: Proteus mirabilis, 3, po, 336 h; mice, p.o., treated 0 hours after infecting; read-out: PD50 (agent alone)
Procedure: as §1

Escherichia coli W-102 = assay: In vivo antibacterial synergism (mouse), Escherichia coli W-102; design: species or system Escherichia coli (infected mice, CD-1); details: Escherichia coli, W102, po, 336 h; mice, p.o., treated 0 hours after infecting; read-out: PD50 (agent alone)
Procedure: as §1

Proteus vulgaris 347 = assay: In vivo antibacterial synergism (mouse), Proteus vulgaris 347; design: species or system Proteus vulgaris (infected mice, CD-1); details: Proteus vulgaris, 347, po, 336 h, mice, p.o.
Procedure: as §1

P. cynomolgi = assay: Activity against P. cynomolgi infections in Rhesus monkeys; format: in vivo, P. cynomolgi (infected Rhesus monkeys); details: Plasmodium cynomolgi, in Macaca mulatta, 168 h; Rhesus monkeys, oral, seven days; read-out: CD50 (the source's name)
[3] = system: lymphocytic leukemia P-388; assay: Activity in mice against lymphocytic leukemia P-388; format: in vivo; details: Mus musculus, P388, ip, mice, I.P., read-out: T/C
[4] = treated 0 hours after infecting, read-out: PD50 (agent alone)
[5] = infected mice, highest dose with no deaths for any reason
[6] = treated 6 hours after infecting, read-out: CD50 (agent alone)
[7] = 336 h, alive on day 14 considered cured, no 60-day data

Row | SMILES | ED50 (Proteus mirabilis 190; [4]) [mg/kg] | PD50 SM/Cpd. (compound part) (Proteus mirabilis 190; with SM 1.56 mg. per kg.) [mg. per kg.] | MIC (S. aureus Smith) [µg/mL] | MIC (E. coli 9637) [µg/mL] | MIC (S. paratyphi 11737) [µg/mL] | MIC (N. catarrhalis 8193) [µg/mL] | MIC (K. pneumoniae 10031) [µg/mL] | synergistic effect with sulfamethoxazole (bacterial infections) | MIC (S. aureus 53-180) [µg/mL] | MIC (P. vulgaris 6896) [µg/mL] | MTD [1, 5] [mg/kg] | ED100 ([2]; 1440 h, 60-day survivors) [mg/kg] | minimal effective dose ([2]; 1440 h, 60-day survivors) [mg/kg] | Cure/Treat at Min. Curing Dose ([2]; 60-day survivors) | ΔMST (increase in mean survival time) ([2]; dose 2.5 mg. per kg.) | other results
1 | Cc1cc2c3c(N)nc(N)nc3ccc2n1Cc1ccccc1 [Example 100, 8-methyl-7-(phenylmethyl)-7H-pyrrolo[3,2-f]-quinazoline-1,3-diamine] | 36.6 | 3.11 | 1.95 (≈ 6.43 µM) | 0.488 (≈ 1.61 µM) | 3.9 (≈ 12.9 µM) | 0.122 (≈ 0.402 µM) | 0.244 (≈ 0.804 µM) | synergistic effect | 0.976 (≈ 3.22 µM) | 15.6 (≈ 51.4 µM) |  |  |  |  |  | 
2 | N#Cc1ccc(-n2ccc3c4c(N)nc(N)nc4ccc32)cc1 [Example 69, 7-(4-Cyanophenyl)-7H-pyrrolo[3,2-f]-quinazoline-1,3-diamine] | > 400 | 9.39 | 0.976 (≈ 3.25 µM) | 0.976 (≈ 3.25 µM) | 31.3 (≈ 104 µM) | 0.031 (≈ 0.103 µM) | 0.122 (≈ 0.406 µM) | synergistic effect | 0.488 (≈ 1.62 µM) | 125 (≈ 416 µM) | 20 | 20 | 5 | 3/5 | 11 | PD50 SM/Cpd. (compound part) (Proteus mirabilis 190; with SM 0.39 mg. per kg.): > 12.5 mg. per kg.; PD50 SM/Cpd. (compound part) (Proteus mirabilis 190; with SM 0.78 mg. per kg.): > 12.5 mg. per kg.; PD50 SM/Cpd. (compound part) (Proteus mirabilis 190; with SM 3.11 mg. per kg.): 2.55 mg. per kg.
3 | Cc1cc(NS(=O)(=O)c2ccc(N)cc2)no1 [SM, sulfomethoxazole, reference compound] |  |  |  |  |  |  |  |  |  |  |  |  |  |  |  | ED50 (Proteus mirabilis 190; [6]): 14 mg/kg; ED50 (Proteus mirabilis 3): 9.9 mg/kg; ED50 (Escherichia coli W-102): 95 mg/kg; ED50 (Proteus vulgaris 347; [4]): 43.2 mg/kg; ED50 (Proteus vulgaris 347; [6]): 60 mg/kg
4 | Nc1nc(N)c2c(ccc3c2ccn3-c2nccs2)n1 [Example 81, 7-(2-thiazolyl)-7H-pyrrolo[3,2-f]quinazoline-1,3-diamine] | 22.3 | > 12.5 | 0.488 (≈ 1.73 µM) | 0.976 (≈ 3.46 µM) | 1.95 (≈ 6.91 µM) | 0.0152 (≈ 0.0538 µM) | 0.244 (≈ 0.864 µM) | synergistic effect | 0.244 (≈ 0.864 µM) | 3.9 (≈ 13.8 µM) |  |  | 640 | 4/5 |  | PD50 SM/Cpd. (compound part) (Proteus mirabilis 190; with SM 3.11 mg. per kg.): 6.25 mg. per kg.; ΔMST (increase in mean survival time) ([2]; dose 160 mg. per kg.): 8.3
5 | N#Cc1cccc(Cn2ccc3c4c(N)nc(N)nc4ccc32)c1 [Example 15, 7-[(3-cyanophenyl)methyl]-7H-pyrrolo[3,2-f]-quinazoline-1,3-diamine] | 8.8 | 2.67 | 0.061 (≈ 0.194 µM) | 0.122 (≈ 0.388 µM) | 0.488 (≈ 1.55 µM) | 0.0038 (≈ 0.0121 µM) | 0.031 (≈ 0.0986 µM) | synergistic effect | 0.031 (≈ 0.0986 µM) | 0.976 (≈ 3.1 µM) | 40 | 10 | 1.25 | 2/5 |  | ΔMST (increase in mean survival time) ([2]; dose 1.25 mg. per kg.): 9.6
6 | COc1ccc(Cn2ccc3c4c(N)nc(N)nc4ccc32)cc1 [Example 34, 7-[(4-methoxyphenyl)methyl]-7H-pyrrolo[3,2-f]quinazoline-1,3-diamine] |  |  | 0.976 (≈ 3.06 µM) | 0.488 (≈ 1.53 µM) | 0.976 (≈ 3.06 µM) | 0.0152 (≈ 0.0476 µM) | 0.061 (≈ 0.191 µM) |  | 0.244 (≈ 0.764 µM) | 0.976 (≈ 3.06 µM) | 160 | 20 | 5 | 2/5 |  | ED50 (P. cynomolgi): 0.316 mg/kg; ΔMST (increase in mean survival time) ([2]; dose 5 mg. per kg.): 11.2
7 | Nc1nc(N)c2c(ccc3c2ccn3Cc2ccc(F)cc2)n1 [Example 5, 7-[(4-fluorophenyl)methyl]-7H-pyrrolo[3,2-f]-quinazoline-1,3-diamine] | 9.8 | 1.56 | 0.244 (≈ 0.794 µM) | 0.122 (≈ 0.397 µM) | 0.488 (≈ 1.59 µM) | 0.0038 (≈ 0.0124 µM) | 0.031 (≈ 0.101 µM) | synergistic effect | 0.122 (≈ 0.397 µM) | 0.488 (≈ 1.59 µM) | 80 | 20 | 5 | 2/5 | 7.1 | 
8 | Nc1nc(N)c2c(ccc3c2ccn3Cc2ccc3ccccc3n2)n1 [Example 50] |  |  | 0.976 (≈ 2.87 µM) | 7.81 (≈ 22.9 µM) | 7.81 (≈ 22.9 µM) | 0.0038 (≈ 0.0112 µM) | 0.122 (≈ 0.358 µM) |  | 0.488 (≈ 1.43 µM) | 7.81 (≈ 22.9 µM) | 160 | 5 | 1.25 | 2/5 |  | ΔMST (increase in mean survival time) ([2]; dose 1.25 mg. per kg.): 6.9; response vs control in vivo at 10 mg/kg [3]: 145%
9 | Cc1ccc(Cn2ccc3c4c(N)nc(N)nc4ccc32)cc1C [Example 25] |  |  | 1.95 (≈ 6.14 µM) | 1.95 (≈ 6.14 µM) | 31.3 (≈ 98.6 µM) | 0.122 (≈ 0.384 µM) | 0.488 (≈ 1.54 µM) |  | 0.976 (≈ 3.08 µM) | 62.5 (≈ 197 µM) |  |  |  |  |  | MTD ([1]; alive on day 14 considered cured, no 60-day data): 80 mg/kg; ED100 [2, 7]: 10 mg/kg; minimal effective dose [2, 7]: 5 mg/kg; Cure/Treat at Min. Curing Dose ([2]; alive on day 14 considered cured): 2/5; ΔMST (increase in mean survival time) ([2]; dose 2.5 mg. per kg., alive on day 14 considered cured, no 60-day data): 6.5; response vs control in vivo at 10 mg/kg [3]: 139%
10 | Nc1nc(N)c2c(ccc3c2ccn3Cc2cccc([N+](=O)[O-])c2)n1 [Example 18, 7-[(3-nitrophenyl)methyl]-7H-pyrrolo[3,2-f]quinazoline-1,3-diamine] |  |  | 0.122 (≈ 0.365 µM) | 0.488 (≈ 1.46 µM) | 0.976 (≈ 2.92 µM) | 0.0152 (≈ 0.0455 µM) | 0.122 (≈ 0.365 µM) |  | 0.061 (≈ 0.182 µM) | 3.9 (≈ 11.7 µM) | 40 | 10 | 2.5 | 3/5 | 7.4 | response vs control in vivo at 5 mg/kg ([3]; 5 mg/kg): 163%
